Values of other authors in PMC11320730, “5-Methoxy-2-aminoindane Reverses Diet-Induced Obesity and Improves Metabolic Parameters in Mice: A Potential New Class of Antiobesity Therapeutics” (ACS Pharmacology & Translational Science, 2024).

What was measured:
[1] = test system: rats fed a cafeteria diet; set-up: method as in PMID 35664477; details: cited from earlier work
[2] = test system: lean mice, DIO mice, ob/ob mice and melanocortin-receptor 4 knockout mice; set-up: method as in PMID 35953488; details: ob/ob and melanocortin-receptor 4 knockout mice; cited from earlier work
[3] = test system: adult female participants with anorexia nervosa; details: single 25 mg dose with psychological support, 10 adult female participants; cited from earlier work

Q: With CN(C)CCc1c[nH]c2cccc(OP(=O)(O)O)c12 [psilocybin] as the compound, how does the weight loss ([1]; at the given doses) read?
A: no effect

Q: What about the weight gain [1] of the same compound?
A: reduced

Q: What about the body weight [2] of the same compound?
A: no impact

Q: And the food intake [2]?
A: no impact

Q: And the “safety and tolerability (adverse events)” value [3]?
A: no clinically significant adverse events observed
